In patent publication US8178525B2 (priority 2008, dated 2012):
pKi: −log10 of the molar value. Structures can show the parent of a compound that is named as a salt. Where two headings read alike, the source gives them in different places. Marks after values point to notes of the source that are not given here.

What was measured:
[1] = tested on: rat tail bleeding time; test: Bleeding time (BT) in rat tail bleeding model; format: in vivo; details: for Prolongation of bleeding time (X-fold): rat tail, po
Method: Fasted, male Sprague-Dawley rats, weighed 200-240 g and aged approximately 7 weeks, were anesthetized by intraperitoneal injection of pentobarbital-Na (60 mg/kg). The FXa inhibitors or vehicle was given orally 60 min before the tails of anesthetized rats were transected 2 mm from the tip and vertically immersed in saline at 37° C. The time until continuous blood flow ceased for >30 s was measured, with a maximum observation time of 30 min (longer bleeding time were assigned a value of 30 min).

[2] = tested on: thrombus formation in rat AV-shunt; test: Antithrombotic effect in arteriovenous shunt (AV-shunt) model in rats; format: in vivo; details: oral 60 min before shunt, dose not given
Method: Antithrombotic effect of the oxazolidinone derivatives with cyclic amidoxime or cyclic amidrazone group represented by formula I of the present invention was evaluated using arteriovenous (AV) shunt in rats. Fasted, male Sprague-Dawley rats, weighed 200-240 g and aged approximately 7 weeks, were anesthetized by intraperitoneal injection of urethane (1.25 g/kg) or chloral hydrate. An arteriovenous (AV) shunt in anesthetized rats was performed as described previously, with minor modification [Journal of Thrombosis and Haemostasis (2004) 3, 514]. The left common carotid artery and the right jugular vein were cannulated with two 200-mm-long, saline filled tubes (PE-50, Becton Dickinson, USA). The polyethylene tubes were connected through 8-mm-long silicone tubing (L/S® 13, MasterFlex, USA) with a 50-mm-long silicone tube (L/S® 16, MasterFlex, USA) containing a […]. The compound or vehicle was given orally 60 min before shunt was opened for 15 min. The cotton thread was then withdrawn and weighed. ED50 values were calculated by linear regression analysis using Excel 2003 (Microsoft®.

[3] = tested on: Citrated human and rat plasma; test: Prothrombin time (PT), method using coagulometer; format: biochemical; details: concentration required to double the plasma clotting times, plasma species not given
Method: (§1) Effect of the oxazolidinone derivatives with cyclic amidoxime or cyclic amidrazone group represented by formula I of the present invention on blood coagulation was investigated by measuring prothrombin time (PT).
a) Method using coagulometer: Prothrombin time (PT) was measured with a Thrombotimer 4-channel coagulometer (Behnk Elektronik, Germany). Citrated human and rat plasma were used in the assays. For the PT measurement, 100 uL of freshly thawed plasma was mixed with 3 uL of serial dilution of test compound or DMSO. After 5 min incubation at 37° C., 200 uL of STA-Neoplastine (Diagnostica Stago, France) was added to start clot formation. Anticoagulant activity of the compounds was defined as the concentration required to double the plasma clotting times [2×PT (uM)]. Human plasma was obtained from Daejeon Red Cross Blood Center. […] Blood was collected into plastic tubes containing 1/10 volume of 3.8% sodium citrate. Plasma was obtained by immediate centrifugation at 2500 g for 10 min at 4° C., and stored at −70° C.

[4] = tested on: citrated plasma; test: Prothrombin time (PT), method using spectramax; format: biochemical, human and rat; details: concentration required to double the plasma clotting times, absorbance 340 nm, plasma species not given
Method: as §1
b) Method using spectramax: The compound solution of serial dilution (5 uL) according to the present invention was mixed with citrated plasma (45 uL) followed by addition of STA-Neoplastine (Diagnostica Stago, France) after 5 min at 37° C. Absorbance at 340 nm was continuously monitored and the PT was determined as time (in seconds) when the absorbance at 340 nm reached 0.1. Anticoagulant activity of the compounds was defined as the concentration required to double the plasma clotting times [2×PT (uM)]. Human plasma was obtained from Daejeon Red Cross Blood Center. […] Blood was collected into plastic tubes containing 1/10 volume of 3.8% sodium citrate. Plasma was obtained by immediate centrifugation at 2500 g for 10 min at 4° C., and stored at −70° C.

[5] = target: T1, human FXa (Homo sapiens, UniProt P00742); test: Inhibitory activity against purified human FXa, chromogenic substrate S-2765; format: biochemical; details: for Ki: purified human FXa 2.6 nM, S-2765 300 uM, pH 7.8, 37° C., Cheng-Prusoff, Km 125 μM, read-out: Ki (nM), inhibition constant against human FXa
T1 construct: purchased Enzyme Research Laboratories
T1 sequence (P00742 235-488 limits assumed): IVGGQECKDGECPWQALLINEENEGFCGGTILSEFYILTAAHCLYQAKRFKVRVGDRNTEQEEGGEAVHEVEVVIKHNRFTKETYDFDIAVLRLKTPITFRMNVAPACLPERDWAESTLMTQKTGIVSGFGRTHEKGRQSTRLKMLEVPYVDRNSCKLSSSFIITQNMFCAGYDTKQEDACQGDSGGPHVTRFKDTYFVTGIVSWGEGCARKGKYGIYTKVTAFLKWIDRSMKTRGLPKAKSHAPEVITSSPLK
T1 sequence (P00742 41-179 partner limits assumed): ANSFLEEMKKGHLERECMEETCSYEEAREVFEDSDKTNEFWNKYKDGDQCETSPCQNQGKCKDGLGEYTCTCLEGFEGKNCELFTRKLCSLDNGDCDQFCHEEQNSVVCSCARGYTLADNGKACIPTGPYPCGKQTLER
Method: Human FXa was purchased from Enzyme Research Laboratories. 96-well microplate was purchased from Corning Life Sciences.
Inhibitory activity of the oxazolidinone derivatives with cyclic amidoxime or cyclic amidrazone group represented by formula I of the present invention against FXa was measured as follow.
The reaction was initiated by the addition of the substrate, and the absorbance was monitored continuously at 405 nm for 5 min using SpectraMax 190 (Molecular Devices, USA). The inhibitory constant (Ki) against human FXa was calculated according to the Cheng-Prusoff equation (Ki=IC50/1+[S]/Km), where [S] is the substrate concentration, and Km is the MichalisMenten constant. Km was determined from a Lineweaver-Burk plot. […] IC50 values were calculated using GraFit software version 5.0.12 (Erithacus Software Ltd., UK).

[6] = physchem; format: physicochemical
From the text: Rivaroxaban represented by formula A was used as the comparison drug.

[7] = asterisked values (chloral hydrate anesthetic)
[8] = values without asterisk (urethane anesthetic)

CN1CCON=C1c1ccc(N2C[C@H](CNC(=O)c3ccc(Cl)s3)OC2=O)cc1 [Compound 100]
prolongation of bleeding time compared to the vehicle control ([1]; rat tail bleeding model, 10 mg/kg): did not prolonged bleeding time | Prolongation of bleeding time (X-fold) ([1]; dose 5 mg/kg): 0.9 X-fold | Inhibition of thrombus formation (%) [2, 7]: 58% | Inhibition of thrombus formation (%) [2, 8]: 65% | 2xPT (uM) Coagulometer [3]: 0.69 ± 0.07 µM | 2xPT (uM) Spectramax [4]: 0.25 µM | pKi [5]: 8.15

CCN1OCCN=C1c1ccc(N2C[C@H](CNC(=O)c3ccc(Cl)s3)OC2=O)cc1 [Compound 105]
Inhibition of thrombus formation (%) [2, 8]: 80% | 2xPT (uM) Coagulometer [3]: 0.16 µM | 2xPT (uM) Spectramax [4]: 0.04 µM | Ki [5]: 3.62 nM

CCC1=NN(c2ccc(N3C[C@H](CNC(=O)c4ccc(Cl)s4)OC3=O)cc2)CCN1 [Compound 111]
Inhibition of thrombus formation (%) [2, 7]: 17* % | 2xPT (uM) Coagulometer [3]: 0.40 µM | Ki [5]: 18.9 nM

O=C(NC[C@H]1CN(c2ccc(N3CCNC=N3)cc2)C(=O)O1)c1ccc(Cl)s1 [109 (MSA salt)]
Prolongation of bleeding time (X-fold) ([1]; dose 2.5 mg/kg): 2.1 X-fold | Prolongation of bleeding time (X-fold) ([1]; dose 5 mg/kg): 3.8 X-fold | Prolongation of bleeding time (X-fold) ([1]; dose 10 mg/kg): 5.7 X-fold | Aqueous Solubility [6]: >20 mM

CCN1CCN(C)N=C1c1ccc(N2C[C@H](CNC(=O)c3ccc(Cl)s3)OC2=O)cc1 [Compound 106]
2xPT (uM) Spectramax [4]: 0.33 µM | pKi [5]: < 7.52

O=C(NC[C@H]1CN(c2ccc(C3=NCCN4C(=O)CCN34)cc2)C(=O)O1)c1ccc(Cl)s1 [Compound 108]
Inhibition of thrombus formation (%) [2, 8]: 52% | 2xPT (uM) Coagulometer [3]: 1.00 µM | 2xPT (uM) Spectramax [4]: 0.35 µM | pKi [5]: 7.80

O=C(NC[C@H]1CN(c2ccc(C3=NOCCN3)cc2)C(=O)O1)c1ccc(Cl)s1 [Compound 101]
Inhibition of thrombus formation (%) [2, 8]: 45% | 2xPT (uM) Spectramax [4]: 1.39 µM | pKi [5]: 6.96

O=C(NC[C@H]1CN(c2ccc(N3CCNC=N3)cc2)C(=O)O1)c1ccc(Cl)s1 [Compound 109-HCl]
Aqueous Solubility [6]: 6 mM

CN1C=NN(c2ccc(N3C[C@H](CNC(=O)c4ccc(Cl)s4)OC3=O)cc2)CC1 [Compound 112]
Inhibition of thrombus formation (%) [2, 7]: 44* % | 2xPT (uM) Coagulometer [3]: 4.26 µM | Ki [5]: 120 nM

CN1CCON=C1c1ccc(N2C[C@H](CNC(=O)c3ccc(Cl)s3)OC2=O)cc1 [100 (HCl salt)]
Prolongation of bleeding time (X-fold) ([1]; dose 5 mg/kg): 1.2 X-fold | Prolongation of bleeding time (X-fold) ([1]; dose 10 mg/kg): 0.9 X-fold | solubility ([6]; water, read-out: Aqueous Solubility): 12 mM

CC1=NN(c2ccc(N3C[C@H](CNC(=O)c4ccc(Cl)s4)OC3=O)cc2)CCN1 [Compound 110]
Inhibition of thrombus formation (%) [2, 7]: 45* % | 2xPT (uM) Coagulometer [3]: 0.31 µM | Ki [5]: 2.07 nM

O=C(NC[C@H]1CN(c2ccc(C3=NOCCN3C3CC3)cc2)C(=O)O1)c1ccc(Cl)s1 [Compound 103]
Inhibition of thrombus formation (%) [2, 8]: 24% | 2xPT (uM) Spectramax [4]: 1.10 µM | pKi [5]: 7.27

CC1=NOCCN1c1ccc(N2C[C@H](CNC(=O)c3ccc(Cl)s3)OC2=O)cc1 [Compound 116]
Inhibition of thrombus formation (%) [2, 8]: 74% | 2xPT (uM) Coagulometer [3]: 3.51 µM | 2xPT (uM) Spectramax [4]: 0.71 µM | Ki [5]: 23.2 nM

O=C(NC[C@H]1CN(c2ccc(N3C=NOCC3)cc2)C(=O)O1)c1ccc(Cl)s1 [Compound 115]
Inhibition of thrombus formation (%) [2, 8]: 29% | 2xPT (uM) Spectramax [4]: 1.49 µM | Ki [5]: 84 nM

CC1=NN(c2ccc(N3C[C@H](CNC(=O)c4ccc(Cl)s4)OC3=O)cc2)CCN1C [Compound 113]
Inhibition of thrombus formation (%) [2, 7]: 12* % | 2xPT (uM) Coagulometer [3]: 0.62 µM | Ki [5]: 29.3 nM

CC1=NN(C)CCN1c1ccc(N2C[C@H](CNC(=O)c3ccc(Cl)s3)OC2=O)cc1 [Compound 121]
Inhibition of thrombus formation (%) [2, 8]: 51% | 2xPT (uM) Coagulometer [3]: 2.90 µM | 2xPT (uM) Spectramax [4]: 0.54 µM | Ki [5]: 95.6 nM

CN1CCON=C1c1ccc(N2C[C@H](CNC(=O)c3ccc(Cl)s3)OC2=O)cc1 [100 (MSA salt)]
Prolongation of bleeding time (X-fold) ([1]; dose 5 mg/kg): 1.1 X-fold | Prolongation of bleeding time (X-fold) ([1]; dose 10 mg/kg): 1.8 X-fold | Prolongation of bleeding time (X-fold) ([1]; dose 20 mg/kg): 5.1 X-fold | Aqueous Solubility [6]: >20 mM

CCN1CCON=C1c1ccc(N2C[C@H](CNC(=O)c3ccc(Cl)s3)OC2=O)cc1 [Compound 102]
Inhibition of thrombus formation (%) [2, 8]: 61% | 2xPT (uM) Coagulometer [3]: 1.76 µM | 2xPT (uM) Spectramax [4]: 0.77 µM | pKi [5]: 8.05

O=CN1CCN(c2ccc(N3C[C@H](CNC(=O)c4ccc(Cl)s4)OC3=O)cc2)C=N1 [Compound 118]
Inhibition of thrombus formation (%) [2, 8]: 74% | 2xPT (uM) Coagulometer [3]: 9.38 µM | 2xPT (uM) Spectramax [4]: 4.88 µM | Ki [5]: 132 nM

CN1C=NCCN1c1ccc(N2C[C@H](CNC(=O)c3ccc(Cl)s3)OC2=O)cc1 [Compound 114]
Inhibition of thrombus formation (%) [2, 7]: 5* % | 2xPT (uM) Coagulometer [3]: 0.50 µM | Ki [5]: 2.86 nM

O=C(NC[C@H]1CN(c2ccc(N3CCON=C3C3CC3)cc2)C(=O)O1)c1ccc(Cl)s1 [Compound 117]
2xPT (uM) Spectramax [4]: 2.2 µM | Ki [5]: 101 nM

CN1OCCN=C1c1ccc(N2C[C@H](CNC(=O)c3ccc(Cl)s3)OC2=O)cc1 [Compound 104]
Inhibition of thrombus formation (%) [2, 8]: 21% | 2xPT (uM) Spectramax [4]: 0.05 µM | Ki [5]: 10 nM

O=C(NC[C@H]1CN(c2ccc(N3CCNC=N3)cc2)C(=O)O1)c1ccc(Cl)s1 [Compound 109]
Prolongation of bleeding time (X-fold) ([1]; dose 2.5 mg/kg): 2.5 X-fold | Prolongation of bleeding time (X-fold) ([1]; dose 5 mg/kg): 4.0 X-fold | Prolongation of bleeding time (X-fold) ([1]; dose 10 mg/kg): 4.1 X-fold | Inhibition of thrombus formation (%) [2, 7]: 73% | Inhibition of thrombus formation (%) [2, 8]: 78% | 2xPT (uM) Coagulometer [3]: 0.44 µM | 2xPT (uM) Spectramax [4]: 0.21 µM | pKi [5]: 8.36
